These are literature values, as cited in PMC5531494, “Target specificity, in vivo pharmacokinetics, and efficacy of the putative STAT3 inhibitor LY5 in osteosarcoma, Ewing's sarcoma, and rhabdomyosarcoma” (PLoS ONE, 2017).

The conditions of this data set: earlier work of the authors; cited from earlier work.

The structures appear in SMILES notation.

For `NS(=O)(=O)c1cccc2c1C(=O)c1cccc(O)c1C2=O` [LLL12], the oral bioavailability entry is “poor oral bioavailability”.
